Test results from patent US20200247815A1, “PYRAZOLYL-CONTAINING TRICYCLIC DERIVATIVE, PREPARATION METHOD THEREFOR AND USE THEREOF” (Jiangsu Hansoh Pharmaceutical Group Co., Ltd., priority 2017, published 2020).

How the values were obtained:
ERK-1 kinase = target: T1, ERK-1 kinase (Homo sapiens, UniProt P27361); test: Inhibition of ERK-1 kinase activity (LANCE Ultra TR-FRET); type: biochemical; conditions: ERK1 enzyme 0.4 nM, ATP 38.15 μM
T1 construct: purchased Invitrogen PV3311
Experimental: (§1) The object of this test example is to determine the inhibition effect of the compound on ERK-1 kinase activity. In vitro ERK-1 kinase analysis was carried out by using LANCE Ultra (Perkin Elmer) method. The reaction (reaction system 10 μL) was conducted by adding 2.5 μL of test compound/DMSO (final 4%, V/V, diluted to 10 concentrations (400 nM to 0.02 nM) using a 1:3 dilution scheme), 5 μL of a mixed solution of ERK1 enzyme (Invitrogen, # PV3311, final concentration: 0.4 nM) and substrate Ulight-MBP peptide (Perkin Elmer, # TRF0109-M, final concentration: 0.5 μM) formulated with a kinase buffer (50 mM Hepes pH 7.4, 10 mM MgCl2, 1 mM EGTA, 0.01% Triton X-100, 2 mM DTT) and 2.5 μL of ATP solution (Invitrogen, # PV3227, final concentration: 38.15 μM) formulated with the same buffer successively to a 384-well plate (Perkin Elmer OPTIPLATE™) and mixing well. The reaction mixture was incubated at room temperature for 60 minutes. The reaction was stopped by adding 1× LANCE Detection buffer (PerkinElmer # CR97-100) diluted with ultra-pure water, mM EDTA (Invitrogen #15575038) and 1 nM Eu-anti-p-MBP (PerkinElmer # TRF0201-M) antibody in 10 μL/well. The plate was incubated at room temperature for 60 minutes. Excitation reading was performed on Synergy H1 Hybird Reader, H1MFD (Biotek) with an excitation wavelength of 320 nm. TR-FRET rate was calculated by dividing the acceptor emission signal (signal value at 665 nM) by the Eu donor emission signal (signal value at 615 nM). The inhibition TR-FRET rate of the well treated by the compound was calculated relative to the Max signal (DMSO control) and Min signal (no enzyme added) control wells on the plate {% inhibition rate=100−[(test compound−Min average)]/(Max average−Min average)×100}. The 10 concentrations of the compound after 4-fold dilution of the reaction system were 100 nM to 0.005 nM. Abs_IC50 value was calculated by using GraphPad prism fits percentage inhibition rate and ten-point concentration data in a 4-parameter non-linear logic formula.

ERK-2 kinase = target: T2, ERK-2 kinase (Homo sapiens, UniProt P28482); test: Inhibition of ERK-2 kinase activity (LANCE Ultra TR-FRET); type: biochemical; conditions: ERK-2 enzyme 0.08 nM, ATP 38.15 μM
T2 construct: purchased Invitrogen PV3313
T2 sequence (P28482 whole entry): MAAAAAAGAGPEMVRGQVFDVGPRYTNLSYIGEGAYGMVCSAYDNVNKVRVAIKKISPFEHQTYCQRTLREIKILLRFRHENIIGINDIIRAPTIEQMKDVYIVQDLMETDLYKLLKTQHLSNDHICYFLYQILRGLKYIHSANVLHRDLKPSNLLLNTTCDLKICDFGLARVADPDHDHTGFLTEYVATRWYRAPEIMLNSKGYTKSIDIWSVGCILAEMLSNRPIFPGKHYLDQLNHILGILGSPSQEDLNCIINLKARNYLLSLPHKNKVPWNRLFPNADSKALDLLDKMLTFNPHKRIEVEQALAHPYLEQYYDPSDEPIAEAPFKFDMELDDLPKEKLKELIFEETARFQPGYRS
Experimental: as §1, with “ERK-2” for “ERK-1”, “ERK-2” for “ERK1”, “PV3313,” for “PV3311,”, “0.08” for “0.4”, “EGTA” for “EGTA,”, “IX” for “1×”

T1 sequence (P27361 whole entry): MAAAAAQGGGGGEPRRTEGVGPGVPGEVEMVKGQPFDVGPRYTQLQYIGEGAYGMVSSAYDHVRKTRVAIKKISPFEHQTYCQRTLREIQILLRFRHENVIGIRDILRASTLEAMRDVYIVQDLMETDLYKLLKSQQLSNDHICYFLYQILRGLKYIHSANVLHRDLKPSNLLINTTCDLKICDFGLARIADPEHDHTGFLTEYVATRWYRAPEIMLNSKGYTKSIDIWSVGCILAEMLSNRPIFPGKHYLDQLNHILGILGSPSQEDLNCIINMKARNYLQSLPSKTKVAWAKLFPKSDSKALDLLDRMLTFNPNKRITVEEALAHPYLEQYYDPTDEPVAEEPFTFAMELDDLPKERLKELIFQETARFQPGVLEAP

SMILES | IC50 (ERK-1 kinase) [nM] | IC50 (ERK-2 kinase) [nM]
C[C@@H](NC(=O)c1nc2cc3c(-c4ccncc4)n[nH]c3cc2[nH]1)c1ccc(Br)cc1 [Example 15, (R)—N-(1-(4-bromophenyl)ethyl)-3-(pyridin-4-yl)-1,7-dihydroimidazo[4,5-f]indazole-6-carboxamide] | 6.41 | 2.72
C[C@@H](NC(=O)c1nc2cc3c(-c4ccncc4)n[nH]c3c(Cl)c2[nH]1)c1ccccc1 [Example 46, (R)-8-chloro-N-(1-phenylethyl)-3-(pyridin-4-yl)-1,7-dihydroimidazo[4,5-f]indazole-6-carboxamide] | 3.3 | 1.7
C[C@@H](NC(=O)c1nc2cc3c(-c4ccnc(F)c4)n[nH]c3cc2[nH]1)c1ccccc1 [Example 37, (R)-3-(2-fluoropyridin-4-yl)-N-(1-phenylethyl)-1,7-dihydroimidazo[4,5-f]indazole-6-carboxamide] | 0.52 | 0.18
C[C@@H](NC(=O)c1nc2cc3c(-c4ccncc4)n[nH]c3cc2[nH]1)c1ccccn1 [Example 9, (R)—N-(1-(pyridin-2-yl)ethyl)-3-(pyridin-4-yl)-1,7-dihydroimidazo[4,5-f]indazole-6-carboxamide] | 8.6 | 3.13
Cc1cccc(C(C)NC(=O)c2nc3cc4c(-c5ccncc5)n[nH]c4cc3[nH]2)n1 (stereo not shown) [Example 44, N-(1-(6-methylpyridin-2-yl)ethyl)-3-(pyridin-4-yl)-1,7-dihydroimidazo[4,5-f]indazole-6-carboxamide] | 0.95 | 0.66
C[C@@H](NC(=O)c1nc2cc3c(-c4cc[n+]([O-])cc4)n[nH]c3cc2[nH]1)c1ccccc1 [Example 97, (R)-4-(6-((1-phenylethyl)carbamoyl)-1,7-dihydroimidazo[4,5-f]indazol-3-yl)pyridine-N-oxide] | 0.75 | 0.3
O=C(N[C@H](CNCC(F)F)c1ccccc1)c1nc2cc3c(-c4ccncc4)n[nH]c3cc2[nH]1 [Example 89, (S)—N-(2-((2,2-difluoroethyl)amino)-1-phenylethyl)-3-(pyridin-4-yl)-1,7-dihydroimidazo[4,5-f]indazole-6-carboxamide] | 1.31 | 0.87
C[C@@H](NC(=O)c1nc2cc3c(-c4ccncc4)n[nH]c3cc2[nH]1)c1ccc(F)c(Cl)c1 [Example 63, (R)—N-(1-(3-chloro-4-fluorophenyl)ethyl)-3-(pyridin-4-yl)-1,7-dihydroimidazo[4,5-f]indazole-6-carboxamide] | 2.93 | 2.88
COC[C@@H](NC(=O)c1nc2cc3c(-c4ccncc4)n[nH]c3cc2[nH]1)c1ccccc1 [Example 13, (S)—N-(2-methoxy-1-phenylethyl)-3-(pyridin-4-yl)-1,7-dihydroimidazo[4,5-f]indazole-6-carboxamide] | 3.01 | 1.39
CC[C@@H](NC(=O)c1nc2cc3c(-c4ccncc4)n[nH]c3cc2[nH]1)c1ccccc1 [Example 17, (R)—N-(1-phenylpropyl)-3-(pyridin-4-yl)-1,7-dihydroimidazo[4,5-f]indazole-6-carboxamide] | 2.34 | 1.15
C[C@@H](NC(=O)c1nc2cc3c(-c4ccncc4)n[nH]c3cc2[nH]1)c1ccc([N+](=O)[O-])cc1 [Example 14, (R)—N-(1-(4-nitrophenyl)ethyl)-3-(pyridin-4-yl)-1,7-dihydroimidazo[4,5-f]indazole-6-carboxamide] | 9.48 | 5.07
Cc1cccc([C@@H](C)NC(=O)c2nc3cc4c(-c5ccncc5)n[nH]c4cc3[nH]2)n1 [Example 47, (R)—N-(1-(6-methylpyridin-2-yl)ethyl)-3-(pyridin-4-yl)-1,7-dihydroimidazo[4,5-f]indazole-6-carboxamide] | 0.49 | 0.17
CC(C)c1cccc([C@@H](C)NC(=O)c2nc3cc4c(-c5ccncc5)n[nH]c4cc3[nH]2)c1 [Example 98, (R)—N-(1-(3-Isopropylphenyl)ethyl)-3-(pyridin-4-yl)-1,7-dihydroimidazo[4,5-f]indazole-6-carboxamide] | 3.32 | 1.02
O=C(NNc1ccccc1)c1nc2cc3c(-c4ccncc4)n[nH]c3cc2[nH]1 [Example 76, N′-phenyl-3-(pyridin-4-yl)-1,7-dihydroimidazo[4,5-f]indazole-6-carbohydrazide] | 0.25 | 0.08
CC(NC(=O)c1nc2cc3c(-c4ccncc4)n[nH]c3cc2[nH]1)c1cnccn1 (stereo not shown) [Example 51, N-(1-(pyrazin-2-yl)ethyl)-3-(pyridin-4-yl)-1,7-dihydroimidazo[4,5-f]indazole-6-carboxamide] | 2.42 | 0.91
COc1cc(-c2n[nH]c3cc4[nH]c(C(=O)N[C@H](C)c5ccccc5)nc4cc23)ccn1 [Example 86, (R)-3-(2-methoxypyridin-4-yl)-N-(1-phenylethyl)-1,7-dihydroimidazo[4,5-f]indazole-6-carboxamide] | 2.4 | 1.33
COc1ccc(CNC(=O)c2nc3cc4c(-c5ccncc5)n[nH]c4cc3[nH]2)cc1OC [Example 3, N-(3,4-dimethoxybenzyl)-3-(pyridin-4-yl)-1,7-dihydroimidazo[4,5-f]indazole-6-carboxamide] | 5.48 | 3.95
CC(C)Oc1ccc(-c2n[nH]c3cc4[nH]c(C(=O)N[C@H](C)c5ccccc5)nc4cc23)cn1 [Example 85, (R)-3-(6-isopropoxypyridin-3-yl)-N-(1-phenylethyl)-1,7-dihydroimidazo[4,5-f]indazole-6-carboxamide] | 3.43 | 3.08
N#C[C@@H](NC(=O)c1nc2cc3c(-c4ccncc4)n[nH]c3cc2[nH]1)c1ccccc1 [Example 34, (S)—N-(cyano(phenyl)methyl)-3-(pyridin-4-yl)-1,7-dihydroimidazo[4,5-f]indazole-6-carboxamide] | 0.79 | 0.34
C[C@H](CNC(=O)c1nc2cc3c(-c4ccncc4)n[nH]c3cc2[nH]1)c1ccccc1 [Example 67, (S)—N-(2-phenylpropyl)-3-(pyridin-4-yl)-1,7-dihydroimidazo[4,5-f]indazole-6-carboxamide] | 1.44 | 0.69
C[C@@H](NC(=O)c1nc2cc3c(C4=CCC(=O)CC4)n[nH]c3cc2[nH]1)c1ccccc1 [Example 94, (R)-3-(4-oxocyclohex-1-en-1-yl)-N-(1-phenylethyl)-1,7-dihydroimidazo[4,5-f]indazole-6-carboxamide] | 2.24 | 5.85
COC(CNC(=O)c1nc2cc3c(-c4ccncc4)n[nH]c3cc2[nH]1)c1ccccc1 (stereo not shown) [Example 78, N-(2-methoxy-2-phenylethyl)-3-(pyridin-4-yl)-1,7-dihydroimidazo[4,5-f]indazole-6-carboxamide] | 0.65 | 0.21
O=C(NCc1ccccc1)c1nc2cc3c(-c4ccncc4)n[nH]c3cc2[nH]1 [Example 114, N-benzyl-3-(pyridin-4-yl)-1,7-dihydroimidazo[4,5-f]indazole-6-carboxamide] | 2.86 | 1.07
